PubChem BioAssay (NCI)
Where “and” joins values, the source holds several entries; their conditions need not be identical. Equal values may be shown once.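 A five-concentration, 48-hour dose response in 96-well plates underlies each endpoint, interpolated linearly between surrounding concentrations. The concentration for 50% growth inhibition is given as GI50. Definition used: TGI = concentration required for complete inhibition of growth.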

Legend:
Assay in all cases: NCI tumour cell line growth inhibition, 48 h
CAKI-1 renal = tested on: CAKI-1 renal
SNB-19 CNS = tested on: SNB-19 CNS
HCT-116 colon = tested on: HCT-116 colon
SK-MEL-5 melanoma = tested on: SK-MEL-5 melanoma
U251 CNS = tested on: U251 CNS
SK-MEL-28 melanoma = tested on: SK-MEL-28 melanoma
NCI-H522 lung = tested on: NCI-H522 lung
SF-295 CNS = tested on: SF-295 CNS
COLO 205 colon = tested on: COLO 205 colon
CCRF-CEM leukemia = tested on: CCRF-CEM leukemia

SMILES | GI50 (CAKI-1 renal) [µM] | TGI (CAKI-1 renal) | GI50 (SNB-19 CNS) [µM] | TGI (SNB-19 CNS) [µM] | GI50 (HCT-116 colon) [µM] | TGI (HCT-116 colon) | GI50 (SK-MEL-5 melanoma) | TGI (SK-MEL-5 melanoma) | GI50 (U251 CNS) [µM] | TGI (U251 CNS) [µM] | GI50 (SK-MEL-28 melanoma) | TGI (SK-MEL-28 melanoma) | GI50 (NCI-H522 lung) | TGI (NCI-H522 lung) | GI50 (SF-295 CNS) [µM] | TGI (SF-295 CNS) [µM] | GI50 (COLO 205 colon) [µM] | TGI (COLO 205 colon) [µM] | GI50 (CCRF-CEM leukemia) | TGI (CCRF-CEM leukemia) [µM]
Fc1ccc(-c2c(-c3ccncc3)n(CCN3CCOCC3)c3cccnc23)cc1 | > 25 | > 25 µM | > 25 | > 25 | > 25 | > 25 µM | > 25 µM | > 25 µM | > 25 | > 25 | > 25 µM | > 25 µM | > 25 µM | > 25 µM | > 25 | > 25 | > 25 | > 25 | > 25 µM | > 25
COc1ccccc1OCC(COC(=O)Nc1ccc(C)cc1)OC(=O)Nc1ccc(C)cc1 (centres undefined) | – | 34.3 µM | – | 46.7 | – | 31.3 µM | – | 47.7 µM | – | 27.3 | – | 60.8 µM | – | 31.5 µM | – | 49 | – | 32.4 | – | 45.3
COc1ccc2c3c([nH]c2c1)[C@H]1C[C@H]2[C@H](C[C@@H](O)[C@H](OC)[C@H]2C(=O)O)CN1CC3 | – | > 100 µM | – | > 100 | – | > 100 µM | – | > 100 µM | – | > 100 | – | > 100 µM | – | > 100 µM | – | > 100 | – | > 100 | – | > 100
C[C@H]1CC(=O)[C@@]2(O)C#C/C=C\C#C[C@@H]3Nc4c(cc(O)c5c4C(=O)c4ccccc4C5=O)[C@]24O[C@]314 | 0.0025 | 0.0597 µM and 0.0512 µM | – | 0.172 | 0.0025 | 0.178 µM and 0.0836 µM | – | 0.123 µM and 0.0412 µM | – | 0.453 | 0.0409 µM | 0.241 µM and 0.729 µM | 0.032 µM | 0.293 µM and 0.384 µM | 0.0025 | 0.0542 | – | 0.342 | 0.0025 µM | –
O=C(O)CCN1C(=O)/C(=C/C(Cl)=C/c2ccccc2)SC1=S | 2.2 | 5.62 µM | 3.41 | 13.3 | 1.82 | 5.06 µM | 1.84 µM | 3.47 µM | 1.66 | 3.16 | 2.11 µM | 5.33 µM | 2.07 µM | 5.66 µM | 2.7 | 8.05 | 2.86 | 6.71 | 1.87 µM | 8.25
CC(C)=CCC[C@](C)(O)[C@H]1CC[C@]2(C)[C@@H]1CC[C@@H]1[C@@]3(C)CC[C@H](OC(=O)CCC(=O)O)C(C)(C)[C@@H]3CC[C@]12C | 24.7 | > 100 µM | 25.1 | > 100 | 56.5 | > 100 µM | 17.8 µM | 43.2 µM | 28.1 | > 100 | 16.9 µM | 34.8 µM | 26.2 µM | > 100 µM | 28.6 | 92.5 | 27.4 | 95.3 | 12.1 µM | 58
O=C(O)C(O)C(O)C1[O][Sb][O]C1CO (centres undefined) | > 100 | > 100 µM | > 100 | > 100 | > 100 | > 100 µM | 27.2 µM and 12.7 µM | > 100 µM and 30.7 µM | > 100 | > 100 | > 100 µM and 13.7 µM | > 100 µM and 43.4 µM | > 100 µM and 14 µM | > 100 µM and 38.9 µM | > 100 | > 100 | > 100 | > 100 | 33.3 µM and 18.9 µM | > 100
C[C@@H]1CC[C@H]2C(CN3CCN(CC4=C(C(F)(F)F)O[C@@H]5O[C@@]6(C)CC[C@H]7[C@H](C)CC[C@@H]4[C@@]57OO6)CC3)=C(C(F)(F)F)O[C@@H]3O[C@@]4(C)CC[C@@H]1[C@]32OO4 | 3.16 | > 33.5 µM | 7.75 | > 100 | 0.262 | > 35.9 µM | 2.96 µM | > 100 µM | 0.653 | > 39.9 | 9.96 µM | > 100 µM | 2.78 µM | > 27 µM | 5.01 | > 100 | 0.996 | – | 0.605 µM | > 100
COc1cc(C(=O)c2c(-c3ccccc3)oc3ccccc23)cc(OC)c1O | 0.766 | 16 µM | 6.76 | 21.7 | 1.04 | 12.5 µM | 2.57 µM | 12.6 µM | 3.21 | 16.1 | 10.4 µM | 25.1 µM | 0.773 µM | 19.6 µM | 2.41 | 6.94 | 18.9 | 43.3 | 1.71 µM | 14.3
